Data: patent US20250302815A1, “PROTEIN TYROSINE PHOSPHATASE TARGETING LIGANDS” (CALICO LIFE SCIENCES LLC, priority 2021, published 2025)

What was measured:
[1] = target: T1, PTPN2 (HiBIT-PTPN2 in 293T.109 cells) (Homo sapiens, UniProt P17706); experiment: HiBiT Degradation 293T.109 PTPN2 (Nano-Glo HiBiT Lytic Assay); type: cell-based; settings: 24.0 hours
T1 construct: expressed in transfected cells; host or cells: 293T.109 (293T WT from ATCC)
T1 sequence (P17706 1-415): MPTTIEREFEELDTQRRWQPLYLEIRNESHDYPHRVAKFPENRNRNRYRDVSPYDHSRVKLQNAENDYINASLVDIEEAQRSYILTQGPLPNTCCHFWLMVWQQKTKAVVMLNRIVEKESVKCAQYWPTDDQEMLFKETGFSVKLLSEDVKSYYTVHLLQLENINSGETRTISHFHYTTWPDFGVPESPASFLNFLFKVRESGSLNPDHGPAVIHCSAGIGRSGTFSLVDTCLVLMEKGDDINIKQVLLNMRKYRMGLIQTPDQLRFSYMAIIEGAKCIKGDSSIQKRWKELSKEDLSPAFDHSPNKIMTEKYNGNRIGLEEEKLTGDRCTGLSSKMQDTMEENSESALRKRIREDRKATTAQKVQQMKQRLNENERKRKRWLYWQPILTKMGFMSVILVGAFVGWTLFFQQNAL
How it was run: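 Degradation read-out: lytic HiBiT luminescence after 24 h treatment (37 °C, 5% CO2) of 5000 293T cells per well expressing HiBiT-fused PTPN2 from an N-terminal tag. Dosing was 11 points, half-log steps down from 10 μM, in duplicate; vehicle-treated and no-reagent wells served as controls.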

PTPN2 (B16F10.4 cells) = target: T2, PTPN2 (B16F10.4 cells) (Mus musculus, UniProt Q06180); experiment: HiBiT Degradation B16F10.4 PTPN2; type: cell-based; settings: 24.0 hours
T2 construct: HiBiT; host or cells: B16F10.4
T2 sequence (Q06180 1-406): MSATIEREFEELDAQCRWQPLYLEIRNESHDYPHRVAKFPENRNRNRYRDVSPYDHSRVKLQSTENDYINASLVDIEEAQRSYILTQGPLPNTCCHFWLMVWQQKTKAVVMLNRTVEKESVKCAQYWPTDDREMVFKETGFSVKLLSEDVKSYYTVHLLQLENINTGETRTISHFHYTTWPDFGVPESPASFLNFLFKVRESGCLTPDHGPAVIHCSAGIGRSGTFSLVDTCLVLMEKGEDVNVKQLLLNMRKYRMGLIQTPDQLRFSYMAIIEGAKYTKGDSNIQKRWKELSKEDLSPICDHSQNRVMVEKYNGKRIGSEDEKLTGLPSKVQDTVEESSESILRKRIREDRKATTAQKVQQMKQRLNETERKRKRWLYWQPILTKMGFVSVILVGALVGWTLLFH

DC50 [1]	DC50 (PTPN2 (B16F10.4 cells))	Compound
200 to 1000 nM	200 to 1000 nM	Cn1c(=O)n(C2CCC(=O)NC2=O)c2ccc(CN3CCN(C(=O)Nc4cccc(CS(=O)(=O)N5CC[C@H](Nc6cccc(-c7sc(C(=O)O)c(OCC(=O)O)c7Cl)c6)CC5(C)C)c4)CC3)cc21 (stereo partly drawn) [Example 221, 3-(carboxymethoxy)-4-chloro-5-[3-[[(4S)-1-[[3-[[4-[[1-(2,6-dioxo-3-piperidyl)-3-methyl-2-oxo-benzimidazol-5-yl]methyl]piperazine-1-carbonyl]amino]phenyl]methylsulfonyl]-2,2-dimethyl-4-piperidyl]amino]phenyl]thiophene-2-carboxylic acid]
50 to 200 nM	50 to 200 nM	Cn1c(=O)n(C2CCC(=O)NC2=O)c2ccc3c(c21)CCCN3C1CCN(C(=O)Nc2cccc(CS(=O)(=O)N3CC[C@H](Nc4cccc(-c5sc(C(=O)O)c(OCC(=O)O)c5Cl)c4)CC3(C)C)c2)CC1 (stereo partly drawn) [Example 222, 3-(carboxymethoxy)-4-chloro-5-[3-[[(4S)-1-[[3-[[4-[3-(2,6-dioxo-3-piperidyl)-1-methyl-2-oxo-8,9-dihydro-7H-imidazo[4,5-f]quinolin-6-yl]piperidine-1-carbonyl]amino]phenyl]methylsulfonyl]-2,2-dimethyl-4-piperidyl]amino]phenyl]thiophene-2-carboxylic acid]
200 to 1000 nM	50 to 200 nM	CC1(C)C[C@@H](Nc2cccc(-c3sc(C(=O)O)c(OCC(=O)O)c3Cl)c2)CCN1S(=O)(=O)Cc1cccc(NC(=O)N2CCC[C@H](c3ccc4c5c(cccc35)N(C3CCC(=O)NC3=O)C4=O)CC2)c1 (stereo partly drawn) [Example 223, 3-(carboxymethoxy)-4-chloro-5-(3-(((4S)-1-((3-((4S)-4-(1-(2,6-dioxopiperidin-3-yl)-2-oxo-1,2-dihydrobenzo[cd]indol-5-yl)azepane-1-carboxamido)benzyl)sulfonyl)-2,2-dimethylpiperidin-4-yl)amino)phenyl)thiophene-2-carboxylic acid]
50 to 200 nM	50 to 200 nM	CC1(C)C[C@@H](Nc2cccc(-c3sc(C(=O)O)c(OCC(=O)O)c3Cl)c2)CCN1S(=O)(=O)Cc1cccc(NC(=O)N2CCC[C@@H](c3ccc4c5c(cccc35)N(C3CCC(=O)NC3=O)C4=O)CC2)c1 (stereo partly drawn) [Example 224, 3-(carboxymethoxy)-4-chloro-5-(3-(((4S)-1-((3-((4R)-4-(1-(2,6-dioxopiperidin-3-yl)-2-oxo-1,2-dihydrobenzo[cd]indol-5-yl)azepane-1-carboxamido)benzyl)sulfonyl)-2,2-dimethylpiperidin-4-yl)amino)phenyl)thiophene-2-carboxylic acid]
200 to 1000 nM	50 to 200 nM	Cn1c(=O)n(C2CCC(=O)NC2=O)c2ccc(C3CCN(C(=O)Nc4cccc(CS(=O)(=O)N5CC[C@H](Oc6cccc(-c7sc(C(=O)O)c(OCC(=O)O)c7Cl)c6)CC5(C)C)c4)CC3)cc21 (stereo partly drawn) [Example 225, 3-(carboxymethoxy)-4-chloro-5-(3-(((4S)-1-((3-(4-(1-(2,6-dioxopiperidin-3-yl)-3-methyl-2-oxo-2,3-dihydro-1H-benzo[d]imidazol-5-yl)piperidine-1-carboxamido)benzyl)sulfonyl)-2,2-dimethylpiperidin-4-yl)oxy)phenyl)thiophene-2-carboxylic acid]
200 to 1000 nM	50 to 200 nM	Cn1c(=O)n(C2CCC(=O)NC2=O)c2ccc(C3CCN(C(=O)Nc4cccc(CS(=O)(=O)N5CC[C@@H](Oc6cccc(-c7sc(C(=O)O)c(OCC(=O)O)c7Cl)c6)CC5(C)C)c4)CC3)cc21 (stereo partly drawn) [Example 226, 3-(carboxymethoxy)-4-chloro-5-(3-(((4R)-1-((3-(4-(1-(2,6-dioxopiperidin-3-yl)-3-methyl-2-oxo-2,3-dihydro-1H-benzo[d]imidazol-5-yl)piperidine-1-carboxamido)benzyl)sulfonyl)-2,2-dimethylpiperidin-4-yl)oxy)phenyl)thiophene-2-carboxylic acid]
200 to 1000 nM	50 to 200 nM	CC1(C)C[C@H](Oc2cccc(-c3sc(C(=O)O)c(OCC(=O)O)c3Cl)c2)CCN1S(=O)(=O)Cc1cccc(NC(=O)N2CCC(c3ccc4c5c(cccc35)C(=O)N4C3CCC(=O)NC3=O)CC2)c1 (stereo partly drawn) [Example 227, 3-(carboxymethoxy)-4-chloro-5-(3-(((4R)-1-((3-(4-(1-(2,6-dioxopiperidin-3-yl)-2-oxo-1,2-dihydrobenzo[cd]indol-6-yl)piperidine-1-carboxamido)benzyl)sulfonyl)-2,2-dimethylpiperidin-4-yl)oxy)phenyl)thiophene-2-carboxylic acid]
200 to 1000 nM	< 50 nM	CC1(C)C[C@@H](Oc2cccc(-c3sc(C(=O)O)c(OCC(=O)O)c3Cl)c2)CCN1S(=O)(=O)Cc1cccc(NC(=O)N2CCC(c3ccc4c5c(cccc35)C(=O)N4C3CCC(=O)NC3=O)CC2)c1 (stereo partly drawn) [Example 228, 3-(carboxymethoxy)-4-chloro-5-(3-(((4S)-1-((3-(4-(1-(2,6-dioxopiperidin-3-yl)-2-oxo-1,2-dihydrobenzo[cd]indol-6-yl)piperidine-1-carboxamido)benzyl)sulfonyl)-2,2-dimethylpiperidin-4-yl)oxy)phenyl)thiophene-2-carboxylic acid]
50 to 200 nM	< 50 nM	O=C(O)COc1c(C(=O)O)sc(-c2cccc(N[C@H]3CCN(S(=O)(=O)Cc4cccc(NC(=O)N5CCC(c6ccc7c8c(cccc68)C(=O)N7C6CCC(=O)NC6=O)CC5)c4)C4(CC4)C3)c2)c1Cl (stereo partly drawn) [Example 229, 3-(carboxymethoxy)-4-chloro-5-(3-(((7S)-4-((3-(4-(1-(2,6-dioxopiperidin-3-yl)-2-oxo-1,2-dihydrobenzo[cd]indol-6-yl)piperidine-1-carboxamido)benzyl)sulfonyl)-4-azaspiro[2.5]octan-7-yl)amino)phenyl)thiophene-2-carboxylic acid]
200 to 1000 nM	50 to 200 nM	Cn1c(=O)n(C2CCC(=O)NC2=O)c2ccc(C3CCN(C(=O)Nc4cccc(CS(=O)(=O)N5CC[C@@H](Nc6cccc(-c7sc(C(=O)O)c(OCC(=O)O)c7Cl)c6)CC56CC6)c4)CC3)cc21 (stereo partly drawn) [Example 230, 3-(carboxymethoxy)-4-chloro-5-(3-(((7R)-4-((3-(4-(1-(2,6-dioxopiperidin-3-yl)-3-methyl-2-oxo-2,3-dihydro-1H-benzo[d]imidazol-5-yl)piperidine-1-carboxamido)benzyl)sulfonyl)-4-azaspiro[2.5]octan-7-yl)amino)phenyl)thiophene-2-carboxylic acid]
50 to 200 nM	< 50 nM	O=C(O)COc1c(C(=O)O)sc(-c2cccc(N[C@@H]3CCN(S(=O)(=O)Cc4cccc(NC(=O)N5CCC(c6ccc7c8c(cccc68)C(=O)N7C6CCC(=O)NC6=O)CC5)c4)C4(CC4)C3)c2)c1Cl (stereo partly drawn) [Example 231, 3-(carboxymethoxy)-4-chloro-5-(3-(((7R)-4-((3-(4-(1-(2,6-dioxopiperidin-3-yl)-2-oxo-1,2-dihydrobenzo[cd]indol-6-yl)piperidine-1-carboxamido)benzyl)sulfonyl)-4-azaspiro[2.5]octan-7-yl)amino)phenyl)thiophene-2-carboxylic acid]
200 to 1000 nM	200 to 1000 nM	Cc1nn(C2CCC(=O)NC2=O)c2ccc(C3CCN(C(=O)Nc4cccc(CS(=O)(=O)N5CC[C@H](Nc6cccc(-c7sc(C(=O)O)c(OCC(=O)O)c7Cl)c6)CC5(C)C)c4)CC3)cc12 (stereo partly drawn) [Example 233, 3-(carboxymethoxy)-4-chloro-5-[3-[[(4S)-1-[[3-[[4-[1-(2,6-dioxo-3-piperidyl)-3-methyl-indazol-5-yl]piperidine-1-carbonyl]amino]phenyl]methylsulfonyl]-2,2-dimethyl-4-piperidyl]amino]phenyl]thiophene-2-carboxylic acid]
